PubChem BioAssay AID1963869 (Molecular Pharmacology Branch, DTP, NCI, 2024)
Active and inactive are the calls of the source. How the source made its calls: active means viability on the fitted dose curve at most 10% of control; inactive means the rest.

System: KRAS patient-derived spheroids with HUVEC/MSC, viability
Assay: Anticancer human tumor 323965-272-R-J2-PDC patient-derived pancreatic carcinoma cell line growth inhibition [KRAS2]
Conditions: for IC50: curve of first compound; for viability, T/C: stronger effect = lower value
Text: Multicellular complex tumor spheroid response to RAS pathway inhibitors in combination with a targeted agents in patient-derived cell lines with oncogenic KRAS variants from multiple cancer types
A high-throughput screen of multi-cell type tumor spheroids was designed to identify active combinations of targeted small molecules and KRAS pathway inhibitors. Complex spheroids include a stromal component modeled by human endothelial cells (HUVEC) and fibroblasts modeled by human mesenchymal stem cells (MSCs). The concentration ranges selected for each drug and investigational agent were based upon clinically achievable concentrations if the clinical Cmax of the agent was known.
Compounds. The drugs and investigational agents: BI-3406 (NSC825286), BAY-293 (NSC824723), batoprotafib (TNO155; NSC825523), sotorasib (AMG 510; NSC818433), MRTX1257 (NSC819558), elimusertib (BAY 1895344; NSC800525), molibresib (GSK525762; NSC774829), temuterkib (LY3214996; NSC803410), venetoclax (NSC766270), alisertib (NSC759677), olaparib (NSC753686), talazoparib (NSC767125), erdafitinib (NSC781556), ipatasertib (NSC767898), cabozantinib (NSC761068), nintedanib (NSC756659), abemaciclib (NSC768073), docetaxel (NSC628503), trametinib (NSC758246), and sapanisertib (NSC764658) were obtained from the National Cancer Institute (NCI) Developmental Therapeutics Program Chemical Repository. The FDA-approved anticancer drug set is available from the Developmental Therapeutics Program. […] The stock solutions were prepared in dimethyl sulfoxide (DMSO, Sigma-Aldrich, St. Louis, MO, cat. D2650) at 800-fold the tested concentration and stored at -70 degrees C prior to their use. All drugs and investigational agents were tested over a range starting from a high concentration at or near the clinical Cmax and decreasing in half-log increments. If the clinical Cmax for an agent had not been determined, the highest concentration tested was 10 microM.
Cell Culture. All cells were maintained in an incubator at 37 degrees C and 5% CO2 with 95% humidity. The PDC lines were cultured according to standard operating procedures established by the NCI PDMR (https://pdmr.cancer.gov/sops/default.htm). Briefly, all PDCs were thawed and cultured in Matrigel-coated flasks prepared with a working solution of 1X Ham's F-12 nutrient mix, without supplementation (Invitrogen, Waltham, MA, cat. 11765054), 100 U/mL penicillin-streptomycin (Invitrogen, cat. 15140122), and 2.5% Matrigel (Corning Inc., Corning, NY, cat. 354248) for the first three passages. All PDCs were cultured in complete DMEM/F-12 media containing advanced DMEM/F-12 (Invitrogen, cat. 12634028), 4.9% defined fetal bovine serum, heat inactivated (HyClone Laboratories Inc., Logan, UT, cat. SH30070.03HI), 389 ng/mL hydrocortisone (Sigma-Aldrich, cat. H4001), 9.7 ng/mL human EGF recombinant protein (Invitrogen, cat. PHG0313), 23.4 microg/mL adenine (Sigma-Aldrich, cat. A2786), 97.3 U/mL penicillin-streptomycin (Invitrogen, cat. 15140122), 1.9 mM L-glutamine (Invitrogen, cat. 25030081), and 9.7 microM Y-27632 dihydrochloride (Tocris Bioscience, Bristol, United Kingdom, cat. 1254). The PDCs were cultured in complete DMEM/F12 media without 9.7 microM Y-27632 dihydrochloride for at least two passages prior to the screen. The established cell line HOP-62 was cultured in RPMI 1640 medium, HEPES (Invitrogen, cat. 22400105) with 10% defined fetal bovine serum (HyClone Laboratories Inc., cat. SH30070.03) and 2 mM L-glutamine (Invitrogen, cat. 25030081). The pooled donor HUVEC were cultured in endothelial cell growth medium 2 (PromoCell, Heidelberg, Germany, cat. C-22011) and the hMSC were cultured in mesenchymal stem cell growth medium 2 (PromoCell, cat. C-28009). For all experiments, HUVEC and hMSC were used at passages </=5, while the malignant cell lines were used at passages </=15. […]

[1] = second compound 0.1 µM, first compound 0.000316 µM
[2] = second compound 0.1 µM, first compound 0.001 µM
[3] = second compound 0.1 µM, first compound 0.00316 µM
[4] = second compound 0.1 µM, first compound 0.01 µM
[5] = second compound 0.1 µM, first compound 0.0316 µM
[6] = second compound 0.1 µM, first compound 0.1 µM
[7] = second compound 0.316 µM, first compound 0.000316 µM
[8] = second compound 0.316 µM, first compound 0.001 µM
[9] = second compound 0.316 µM, first compound 0.00316 µM
[10] = second compound 0.316 µM, first compound 0.01 µM
[11] = second compound 0.316 µM, first compound 0.0316 µM
[12] = second compound 0.316 µM, first compound 0.1 µM
[13] = second compound 1 µM, first compound 0.000316 µM
[14] = second compound 1 µM, first compound 0.001 µM
[15] = second compound 1 µM, first compound 0.00316 µM
[16] = second compound 1 µM, first compound 0.01 µM
[17] = second compound 1 µM, first compound 0.0316 µM
[18] = second compound 1 µM, first compound 0.1 µM
[19] = second compound 3.16 µM, first compound 0.000316 µM
[20] = second compound 3.16 µM, first compound 0.001 µM
[21] = second compound 3.16 µM, first compound 0.00316 µM
[22] = second compound 3.16 µM, first compound 0.01 µM
[23] = second compound 3.16 µM, first compound 0.0316 µM
[24] = second compound 3.16 µM, first compound 0.1 µM
[25] = second compound 10 µM, first compound 0.000316 µM
[26] = second compound 10 µM, first compound 0.001 µM
[27] = second compound 10 µM, first compound 0.00316 µM
[28] = second compound 10 µM, first compound 0.01 µM
[29] = second compound 10 µM, first compound 0.0316 µM
[30] = second compound 10 µM, first compound 0.1 µM
[31] = second compound 0.1 µM, first compound 0.316 µM
[32] = second compound 0.1 µM, first compound 1 µM
[33] = second compound 0.1 µM, first compound 3.16 µM
[34] = second compound 0.1 µM, first compound 10 µM
[35] = second compound 0.316 µM, first compound 0.316 µM
[36] = second compound 0.316 µM, first compound 1 µM
[37] = second compound 0.316 µM, first compound 3.16 µM
[38] = second compound 0.316 µM, first compound 10 µM
[39] = second compound 1 µM, first compound 0.316 µM
[40] = second compound 1 µM, first compound 1 µM
[41] = second compound 1 µM, first compound 3.16 µM
[42] = second compound 1 µM, first compound 10 µM
[43] = second compound 3.16 µM, first compound 0.316 µM
[44] = second compound 3.16 µM, first compound 1 µM
[45] = second compound 3.16 µM, first compound 3.16 µM
[46] = second compound 3.16 µM, first compound 10 µM
[47] = second compound 10 µM, first compound 0.316 µM
[48] = second compound 10 µM, first compound 1 µM
[49] = second compound 10 µM, first compound 3.16 µM
[50] = second compound 10 µM, first compound 10 µM
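Wherever IC50 is given: spheroids exposed to agents for 7 days.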
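Wherever viability, T/C is given: spheroids exposed to agents for 7 days.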

CC(C)n1nc(-c2ccc3oc(N)nc3c2)c2c(N)ncnc21 + C=CC(=O)N1CCN(c2nc(=O)n(-c3c(C)ccnc3C(C)C)c3nc(-c4c(O)cccc4F)c(F)cc23)C(C)C1
IC50 (second compound 0.1 µM): 0.446 nM | IC50 (second compound 0.316 µM): 0.394 nM | IC50 (second compound 1 µM): 0.514 nM | IC50 (second compound 3.16 µM): 0.381 nM | IC50 (second compound 10 µM): < 0.316 nM | viability, T/C [1]: 53.7% | viability, T/C [2]: 41.4% | viability, T/C [3]: 28.3% | viability, T/C [4]: 19.1% | viability, T/C [5]: 15.9% | viability, T/C [6]: 12.3% | viability, T/C [7]: 53.2% | viability, T/C [8]: 37.8% | viability, T/C [9]: 30.5% | viability, T/C [10]: 22.1% | viability, T/C [11]: 14.8% | viability, T/C [12]: 12.5% | viability, T/C [13]: 56.9% | viability, T/C [14]: 41.1% | viability, T/C [15]: 28.6% | viability, T/C [16]: 19.3% | viability, T/C [17]: 15.6% | viability, T/C [18]: 13.3% | viability, T/C [19]: 51.6% | viability, T/C [20]: 41.9% | viability, T/C [21]: 29% | viability, T/C [22]: 17.5% | viability, T/C [23]: 13.7% | viability, T/C [24]: 12.3% | viability, T/C [25]: 48.8% | viability, T/C [26]: 36.3% | viability, T/C [27]: 24.1% | viability, T/C [28]: 19.4% | viability, T/C [29]: 12.4% | viability, T/C [30]: 12.7%

O=C(c1cc(Cc2n[nH]c(=O)c3ccccc23)ccc1F)N1CCN(C(=O)C2CC2)CC1 + CC1OCC2(CCN(c3cnc(Sc4ccnc(N)c4Cl)c(N)n3)CC2)C1N
IC50 (second compound 0.1 µM): > 10000 nM | IC50 (second compound 0.316 µM): > 10000 nM | IC50 (second compound 1 µM): 9440 nM | IC50 (second compound 3.16 µM): < 31.6 nM | IC50 (second compound 10 µM): < 31.6 nM | viability, T/C [5]: 73.2% | viability, T/C [6]: 73.4% | viability, T/C [31]: 82.2% | viability, T/C [32]: 80.1% | viability, T/C [33]: 82.3% | viability, T/C [34]: 53.7% | viability, T/C [11]: 60.9% | viability, T/C [12]: 67.9% | viability, T/C [35]: 65.8% | viability, T/C [36]: 67.3% | viability, T/C [37]: 61.3% | viability, T/C [38]: 40.1% | viability, T/C [17]: 101% | viability, T/C [18]: 106% | viability, T/C [39]: 102% | viability, T/C [40]: 101% | viability, T/C [41]: 88.5% | viability, T/C [42]: 47.8% | viability, T/C [23]: 36.6% | viability, T/C [24]: 40.9% | viability, T/C [43]: 41.4% | viability, T/C [44]: 34.8% | viability, T/C [45]: 36.8% | viability, T/C [46]: 24.9% | viability, T/C [29]: 33.1% | viability, T/C [30]: 33.1% | outcome [47]: inactive | viability, T/C [48]: 28% | viability, T/C [49]: 23.7% | viability, T/C [50]: 19%

CC(C)NCC(C(=O)N1CCN(c2ncnc3c2C(C)CC3O)CC1)c1ccc(Cl)cc1 (stereo not given) + CC1OCC2(CCN(c3cnc(Sc4ccnc(N)c4Cl)c(N)n3)CC2)C1N
IC50 (second compound 0.1 µM): 732 nM | IC50 (second compound 0.316 µM): 143 nM | IC50 (second compound 1 µM): < 31.6 nM | IC50 (second compound 3.16 µM): < 31.6 nM | IC50 (second compound 10 µM): < 31.6 nM | viability, T/C [5]: 84.6% | viability, T/C [6]: 72.5% | viability, T/C [31]: 57.6% | viability, T/C [32]: 44.9% | viability, T/C [33]: 42.1% | viability, T/C [34]: 32.4% | viability, T/C [11]: 60.2% | viability, T/C [12]: 54.2% | viability, T/C [35]: 40.8% | viability, T/C [36]: 29% | viability, T/C [37]: 27.9% | viability, T/C [38]: 23.6% | viability, T/C [17]: 38.5% | viability, T/C [18]: 35.3% | viability, T/C [39]: 21.5% | viability, T/C [40]: 12.7% | viability, T/C [41]: 12.6% | viability, T/C [42]: 10.4% | viability, T/C [23]: 24.8% | viability, T/C [24]: 20.3% | viability, T/C [43]: 12.6% | viability, T/C [44]: 7.8% | viability, T/C [45]: 5.77% | viability, T/C [46]: 3.98% | viability, T/C [29]: 20.8% | viability, T/C [30]: 19.1% | viability, T/C [47]: 11.5% | viability, T/C [48]: 6.63% | viability, T/C [49]: 4.73% | viability, T/C [50]: 2.87%

CC(=O)Nc1cccc(-n2c(=O)n(C3CC3)c(=O)c3c(Nc4ccc(I)cc4F)n(C)c(=O)c(C)c32)c1 + C=CC(=O)N1CCN(c2nc(=O)n(-c3c(C)ccnc3C(C)C)c3nc(-c4c(O)cccc4F)c(F)cc23)C(C)C1
IC50 (second compound 0.1 µM): 1.15 nM | IC50 (second compound 0.316 µM): 0.987 nM | IC50 (second compound 1 µM): 0.79 nM | IC50 (second compound 3.16 µM): 1.19 nM | IC50 (second compound 10 µM): 0.295 nM | viability, T/C (second compound 0.1 µM, first compound 0.0001 µM): 67.4% | viability, T/C [1]: 62.2% | viability, T/C [2]: 49.2% | viability, T/C [3]: 40.1% | viability, T/C [4]: 36.6% | viability, T/C [5]: 23.4% | viability, T/C (second compound 0.316 µM, first compound 0.0001 µM): 60.1% | viability, T/C [7]: 57.1% | viability, T/C [8]: 49.3% | viability, T/C [9]: 41.5% | viability, T/C [10]: 33.7% | viability, T/C [11]: 20.9% | viability, T/C (second compound 1 µM, first compound 0.0001 µM): 61.4% | viability, T/C [13]: 58.3% | viability, T/C [14]: 46.4% | viability, T/C [15]: 40.4% | viability, T/C [16]: 32.7% | viability, T/C [17]: 27% | viability, T/C (second compound 3.16 µM, first compound 0.0001 µM): 64.1% | viability, T/C [19]: 59.5% | viability, T/C [20]: 51.4% | viability, T/C [21]: 42.1% | viability, T/C [22]: 36.7% | viability, T/C [23]: 28.2% | viability, T/C (second compound 10 µM, first compound 0.0001 µM): 60.9% | viability, T/C [25]: 54.3% | viability, T/C [26]: 32.6% | viability, T/C [27]: 35.8% | viability, T/C [28]: 28.1% | viability, T/C [29]: 23.8%
